Results published in patent US9605000B2, “Spiro azetidine isoxazole derivatives and their use as SSTR antagonists” (Takeda Pharmaceutical Company Limited, priority 2013, dated 2017).

Key:
human SSTR5 = molecular target: T1, human SSTR5 (Homo sapiens, UniProt P35346); experiment: Human SSTR5 antagonist activity using intracellular cAMP concentration as indicator (somatostatin 28, Test Example 2); format: cell-based; conditions: 1 μM test compound; somatostatin 28 and 0.3 μM forskolin; CHO (dhfr-) cells expressing human SSTR5; HTRF cAMP; read-out: Inhibition rate (%) with respect to SSTR5 in concentration of 1 μM
T1 construct: expressed in transfected cells
Method: Evaluation of Human SSTR5 Antagonist Activity Using an Intracellular cAMP Concentration as an Indicator
Measurement of the intracellular cAMP concentration was performed using a HTRF cAMP dynamic 2 kit (manufactured by Cisbio). A test compound which was diluted with an assay buffer (5 mM HEPES (pH 7.5) (manufactured by Invitrogen Corp.), 0.1% fatty-acid free BSA (manufactured by Sigma-Aldrich, Inc.), HBSS (manufactured by Invitrogen Corp.) containing 500 μM IBMX (manufactured by Wako Pure Chemical Industries, Ltd) was added by 2 μL/well to a 384 well white plate (manufactured by Greiner) such that a final concentration become 1 μM. A frozen stock, which was stably expressed dihydrofolate reductase-deficient CHO (dhfr-) cells in which human SSTR5 gene (Accession No. NM001053) was melted in a thermostatic chamber at 37° C., and it was suspended on a medium of subculture (medium prepared from MEM alpha (manufactured by Wako Pure Chemical Industries, Ltd.), 10% dialyzed serum (manufacture by Gemini Co., Ltd.) and 50 μg/mL gentamicin (manufactured by Invitrogen Corp.). After centrifuging the cell suspension, the cell suspension was resuspended using the assay buffer, and the resultant was added to each well by 2 μL/well to be 4000 cells/well. After a test compound and cells were incubated for 15 minutes. An assay buffer which contains 0.1 nM of somatostatin 28 (manufactured by Toray Research Center) and 0.3 μM of forskolin (manufactured by Wako Pure Chemical Industries, Ltd) as a final concentration was added by […], and incubation was performed for 30 minutes at room temperature. Each of cAMP-d2 and anti-cAMP-cryptate was added by 3 μL/well, it was allowed to stand for 60 minutes at room temperature, and FRET (Fluorescence resonance energy transfer) intensity was measured using Multi-label reader Envision (manufactured by Perkin Elmer Inc.). Using the calibration curve prepared from the FRET intensity of well groups in which cAMP as arbitrary concentration was added to an assay buffer, FRET intensity of wells in which a test compound group was added was converted into cAMP concentration. Inhibitory activity of compounds was calculated using the following equation. Inhibitory activity (%)=(C−B)/(A−B)×100 A: cAMP concentration calculated from wells in which 0.3 μM of forskolin is added B: cAMP concentration calculated from wells in which 0.3 μM of forskolin and 1 nM of somatostatin 28 are added C: cAMP concentration wells in which 0.3 μM of forskolin, 1 nM of somatostatin 28 and 1 μM of test compound are added
Inhibition rates (%) are described in Table 3 with respect to SSTR5 in concentration of 1 μM of a test compound.

hERG = hERG (Homo sapiens, UniProt Q12809); experiment: hERG activity measurement by IonWorks Quattro (Test Example 4); format: cell-based; conditions: 5 minutes exposure, CHO cells stably expressing hERG, IonWorks Quattro PPC mode
Method: hERG Activity Measurement by IonWorks Quattro
A cell strain CYL3038 having hERG stably expressed in CHO cells was purchased from Millipore LIMITED. A subculture of CYL3038 was prepared using Ham's F-12 medium containing 10% FBS and 500 μg/mL Geneticin, under the presence of 5% CO2 at 32° C. hERG current inhibition was measured by PPC mode of IonWorks Quattro (Molecular Devices, Inc.). As an extracellular fluid, PBS (+) was used. As an intracellular fluid, 20 mM HEPES buffer (pH 7.3) containing 140 mM KCl, 2 mM MgCl2 and 1 mM EGTA was used, and the cell was perforated by amphotericin. As the voltage protocol, holding potential was set to −80 mV, prepulsevoltage was set to 40 mV (2 seconds) and test pulsevoltage was set to −50 mV (2 seconds). Current values before and after addition of compound are respectively recorded as pre-compound hERG current and post-compound hERG current.

C57BL/6J mice = experiment: Evaluation of glucose lowering effect (oral glucose load in high fat diet fed mice, Test Example 3); format: in vivo; conditions: 3 mg/kg oral, male C57BL/6J mice on HFD, Mean ± SD, n = 6
Method: Evaluation of Glucose Lowering Effect
8-week-old male C57BL/6J mice were purchased from CLEA Japan, Inc. After feeding high fat diet (HFD; D12492, Research Diets, Inc.) for a week, weight of mice is measured a day before the experiment, and the mice were separated in groups based on the weight. On the day of experiment, vehicle (0.5% methyl cellulose solution) or test drug (0.5% methyl cellulose suspension) were orally administered 1 hour after fasting was started and glucose load was given orally 9 hours after fasting was started. Just before the glucose load, Blood Glucose (BG) was measured by drawing blood from the tail (pre), and BG was measured again from the tail 10 minutes, 30 minutes, 60 minutes and 120 minutes after the glucose load. All values were indicated with Mean±Standard Deviation (SD), and in the statistical analysis, Williams test was used for the case of equal variance and Shirley-Williams test was used for non-equal variance in the comparison of the vehicle group and test drug group.

Chain of hERG (Q12809 whole entry): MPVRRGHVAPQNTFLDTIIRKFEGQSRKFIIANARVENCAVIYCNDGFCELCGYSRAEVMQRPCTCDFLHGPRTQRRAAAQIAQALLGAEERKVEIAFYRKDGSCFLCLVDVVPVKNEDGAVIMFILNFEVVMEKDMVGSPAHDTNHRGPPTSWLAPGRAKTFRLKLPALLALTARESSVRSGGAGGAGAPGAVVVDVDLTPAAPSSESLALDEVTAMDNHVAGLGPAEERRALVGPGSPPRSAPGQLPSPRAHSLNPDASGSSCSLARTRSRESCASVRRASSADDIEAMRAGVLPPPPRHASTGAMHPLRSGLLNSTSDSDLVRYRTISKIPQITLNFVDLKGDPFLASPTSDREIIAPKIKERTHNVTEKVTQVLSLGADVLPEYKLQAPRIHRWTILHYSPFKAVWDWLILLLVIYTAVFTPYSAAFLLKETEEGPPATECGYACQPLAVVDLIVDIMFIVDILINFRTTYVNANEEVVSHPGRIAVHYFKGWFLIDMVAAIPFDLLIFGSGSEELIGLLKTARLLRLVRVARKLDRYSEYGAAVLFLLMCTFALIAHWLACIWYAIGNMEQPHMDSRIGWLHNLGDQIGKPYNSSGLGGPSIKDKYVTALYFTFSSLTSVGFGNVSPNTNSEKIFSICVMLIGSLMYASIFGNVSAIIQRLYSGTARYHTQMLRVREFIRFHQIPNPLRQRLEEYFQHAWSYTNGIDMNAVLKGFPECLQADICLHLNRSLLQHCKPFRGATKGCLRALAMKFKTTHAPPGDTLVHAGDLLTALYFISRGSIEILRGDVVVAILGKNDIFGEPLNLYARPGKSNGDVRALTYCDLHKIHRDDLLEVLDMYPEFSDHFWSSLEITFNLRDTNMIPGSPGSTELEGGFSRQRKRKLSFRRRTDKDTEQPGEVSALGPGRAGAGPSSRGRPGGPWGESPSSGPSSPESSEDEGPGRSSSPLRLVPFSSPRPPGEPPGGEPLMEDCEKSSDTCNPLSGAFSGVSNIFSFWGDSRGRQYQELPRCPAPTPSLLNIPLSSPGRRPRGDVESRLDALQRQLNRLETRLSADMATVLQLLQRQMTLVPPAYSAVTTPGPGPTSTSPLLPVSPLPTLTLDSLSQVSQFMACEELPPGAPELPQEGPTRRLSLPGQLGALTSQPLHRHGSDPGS
T1 sequence (P35346 whole entry): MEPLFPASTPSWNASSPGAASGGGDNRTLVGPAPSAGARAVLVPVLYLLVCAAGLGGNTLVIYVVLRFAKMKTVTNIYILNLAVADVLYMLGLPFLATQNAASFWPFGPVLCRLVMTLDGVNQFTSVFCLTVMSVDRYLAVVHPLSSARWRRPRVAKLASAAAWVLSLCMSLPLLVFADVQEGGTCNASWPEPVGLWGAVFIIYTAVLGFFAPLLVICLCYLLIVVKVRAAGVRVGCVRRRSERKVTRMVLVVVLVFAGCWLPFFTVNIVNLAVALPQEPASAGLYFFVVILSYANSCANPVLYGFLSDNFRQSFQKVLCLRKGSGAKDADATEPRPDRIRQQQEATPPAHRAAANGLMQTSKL

Structure (SMILES): COc1c(CN2CC3(CC(N4CCC(C)(C(=O)O)CC4)=NO3)C2)cc(C2CC2)c(-c2ccc(F)cc2)c1F [Example 265, 1-(2-((6-Cyclopropyl-2,4′-difluoro-3-methoxybiphenyl-4-yl)methyl)-5-oxa-2,6-diazaspiro[3.4]oct-6-en-7-yl)-4-methylpiperidine-4-carboxylic acid]
- inhibition at 1 µM (human SSTR5): 92%
- % hERG inhibition (10 μM) (hERG): 18%

Structure (SMILES): COc1c(CN2CC3(CC(N4CCC(C)(C(=O)O)CC4)=NO3)C2)cc(C2CC2)c(-c2ccc(F)cc2)c1Cl [Example 238, 1-(2-((2-Chloro-6-cyclopropyl-4′-fluoro-3-methoxybiphenyl-4-yl)methyl)-5-oxa-2,6-diazaspiro[3.4]oct-6-en-7-yl)-4-methylpiperidine-4-carboxylic acid]
- inhibition at 1 µM (human SSTR5): 99%
- Blood Glucose (BG) 10 min (C57BL/6J mice; 10 minutes after glucose load): 261 ± 42
- Blood Glucose (BG) 30 min (C57BL/6J mice; 30 minutes after glucose load): 350 ± 49
- Blood Glucose (BG) 60 min (C57BL/6J mice; 60 minutes after glucose load): 345 ± 38
- Blood Glucose (BG) 120 min (C57BL/6J mice; 120 minutes after glucose load): 188 ± 22
- AUCpre-120 min (C57BL/6J mice; blood glucose AUC pre to 120 min after glucose load): 576 ± 52
- Blood Glucose (BG) pre (C57BL/6J mice; just before glucose load): 148 ± 19
- % hERG inhibition (10 μM) (hERG): 10%
